The text below walks through data of patent EP0562849A2, “Steroid derivatives” (priority 1992, dated 1993).

The test system of one test is Syrian Golden hamsters. The experiment in a line: In vivo serum cholesterol lowering in hamsters fed a cholesterol test diet. The following applies: hamsters; for Serum Cholesterol Mean: 0.2% (w/w) in Cholesterol Test Diet for one week, equivalent to 100 mg/kg/day, groups of six, control mean 337; for Percent Lowering of Cholesterol from Control Value Mean / inhibition in vivo at 100 mg/kg/day: 0.2% (w/w) in diet for one week (100 mg/kg/day), negative values = serum cholesterol increased relative to control; for inhibition in vivo at 100 mg/kg/day: Mesocricetus auratus, feed or water, 168 h, read-out: Percent Lowering of Cholesterol from Control Value Mean. The procedure: Syrian Golden hamsters were fed a cholesterol test diet made of 10% coconut oil and 0.12% cholesterol (by weight) in Purina 5001 Rodent Chow to induce hypercholesteriolemia.
After two weeks on the cholesterol test diet the hamsters were bled from the orbital sinium under light CO2 anesthesia. Serum was prepared and analyzed for cholesterol using a commercial test kit (Cholesterol High Performance, Single Vial™, product of Boehringer Mannheim Corp., Indianapolis, IN, USA). The hamsters were separated into groups of six animals, such that each group had approximately the same mean serum cholesterol levels. Selected compounds of the invention were incorporated into the Cholesterol Test Diet at 0.2% (w/w) and fed to the hamsters for one week. A control group of hamsters continued on the Cholesterol Test Diet during the same one-week period. The dose of test compounds of the invention was equivalent to 100 mg/kg/day based on the weight of the hamsters and their diet consumption. Upon completion of the test period, the animals were bled and serum cholesterol determined as above.
Mean serum cholesterol values from the test hamsters were compared to values from the control group and tested for significance at the Z.05 level using Dunnett's test.

The subject of test [1] is human LDL receptor promoter. The experiment in a line: in vitro Luciferase Activity Test (LDL receptor promoter-luciferase reporter in recombinant CHO cells). It counts as cell-based. The following applies: for MED: minimum effective dose (molar concentration, unit not given), 24 hr, assay medium with 0.5 µg/ml 25-hydroxycholesterol; for MA% / Emax: maximum activity (%) over control; for Emax: Homo sapiens, CHO, read-out: MA%; for RED: relative effective dose compared to compound of Example 4, below one = more active. Set-up: MED: unit not given here. The procedure: A 1546 base pair sequence of the human LDL receptor promoter was amplified using the polymerase chain reaction. A reaction mixture containing 20 pMoles each of the synthetic oligonucleotides 5'-[…]-3' (Seq. I.D. No: 1) and 5'-AAG-[…]-3', (Seq. I.D. No:2) 1 µg human genomic DNA purified from the adenocarcinoma cell line P3UCLA, 200 µM each of dATP, dGTP, dCTP, and TTP, 2.5 units of Taq DNA polymerase, 10mM Tris-HCI pH 8.3, 50 mM KCI, […], 0.1% gelatin in a final volume of 100 µl was subjected to 30 cycles of 15 sec at 96°C, 30 sec at 55°C, and 1 min at 72°C. The material was subject to gel electrophoresis on a 1% agarose gel and the 1546 base pair band was isolated and restriction enzyme digested with Hind III and Nde I. This fragment was ligated into the plasmid pSP72 (ProMega Biotech), which had previously been restriction enzyme nuclease digested with Hind III and Nde I. The resulting vector, pNLDLRP, was restriction endonulease digested with Ndel and Hind III and the material was again run on a 1% agarose gel to reisolate the 1546 bp LDL receptor sequence.
Plasmid vector PSv2 was constructed by digesting plasmid pSv2-globin with Hind III and Bgl II then ligating an Nrul-Xhol linker into the vector. Plasmid pSv2 globin is disclosed in U.S. Patent No. 4,775,624, the entire teaching of which is herein incorporated by reference. The linker contained the following sequences: [formula] (Seq. I.D. No: 3), and [formula] ' (Seq. I.D. No:4).
The resulting vector was designated pSv2-H NXB because it contained a […], an Nrul site, an Xhol site and a Bgl site. The Hind III-Bgl II fragment of plasmid pAlc4(NRRL B-18783), which contains the firefly luciferase gene, was then ligated into the Hin III-Bgl site of plasmid pSv2-HNXB. A neomycin resistance-conforming gene was then ligated into the Bam HI site of the resultant plasmid to form plasmid pSv2.
A 1546 base pair fragment was isolated and cloned into a Ndel and Hind III (partial) restriction digested vector pSv2 containing the firefly luciferase reporter gene and a gene for neomycin resistance. The resulting vector, pLDL-Luc1 Neo-10, contains the human LDL receptor promoter driving expression of the firefly luciferase gene, a gene coding for neomycin resistance, ampicillin resistant marker and an origin of replication.
Plasmid pLDL-Luc 1 Neo-10 was used to stably transfect Chinese Hamster Ovary cells using a Lipofection Reagent kit and procedure from Gibco BRL Research Products Division Life Technologies Inc. Transformants were selected by picking individual colonies grown in Dulbecco's modified Eagle's medium supplimented with 10% fetal bovine serum and containing 500 µg per ml […]. […] Clone S27/B30 was used for subsequent screening.
In developing a cell based screen it is important to have a negative control. The viral SV40 promoter is ideal for this purpose in that it has a number of SP1 elements that enhance gene transcription. These elements are not under the control of end product repression; but they do have a high degree of sequence homology with the 16 base pair long sterol response element found in the LDL receptor promoter. The SV40 promoter should therefore be a sensitive mechanism to screen out agents that induce nonspecific transcription.
Chinese Hamster Ovary cells were stably cotransfected with a vector pSV2AL-A 5' containing the SV40 promoter driving expression of the firefly luciferase gene and a second vector pSV2 NeoBam containing a neomycin resistant marker. Transfections were carried out using the Lipofectin Reagent kit and procedure from Gibco BRL Research Products Division Life Technologies Inc. Transformants were selected by picking individual colonies grown in Dulbecco's modified Eagle's medium supplemented with 10% fetal bovine serum and containing 500 µg per ml of geneticin. Individual clones were selected, lysed and assayed for luciferase production. […]

Setting [2] is: tests using 15% luciferase activity cutoff point (footnote 2).
Setting [3] is: 15% luciferase activity cutoff point (footnote 2).
Where [4] appears, read: NA is not active, 30% luciferase activity cutoff point (footnote 1).
The mark [5] stands for this setting: tests using 30% luciferase activity cutoff point (footnote 1).
[6] abbreviates: 30% luciferase activity cutoff point (footnote 1).

Values joined by “and” are separate entries in the source; they are usually repeats but may differ in a detail not shown here. Identical values can stand only once. Like-named read-outs stand apart in the source and are kept apart here.

Take “4a-4-(2-propenyl)cholestan-3-one [Example 72]”: in the test with Syrian Golden hamsters, the “Serum Cholesterol Mean” value amounted to 267 mg/dL and the “Percent Lowering of Cholesterol from Control Value Mean” value (“Percent Lowering of Cholesterol” for short) worked out at 20.8%.

Take `C=CC[C@@H]1[C@H](O)CC[C@@]2(C)[C@H]1CC[C@@H]1[C@@H]2CC[C@]2(C)[C@@H]([C@H](C)CCCC(C)C)CC[C@@H]12` [(4), (3α,4α,5α,20β)-4-(2-propenyl)cholestan-3-ol]: in the test on Syrian Golden hamsters, the “Serum Cholesterol Mean” value came to 198 mg/dL and the “Percent Lowering of Cholesterol” value is 41.4%.

As to `CC(C)CCC[C@@H](C)[C@H]1CC[C@H]2[C@@H]3CCC4[C@H](Cc5ccccc5)C(=O)CC[C@]4(C)[C@H]3CC[C@]12C` (some centres unmarked) [(5), 4a-benzylcholestan-3-one], in the test with Syrian Golden hamsters, the “Serum Cholesterol Mean” value worked out at 202 mg/dL and the “Percent Lowering of Cholesterol” value was found to be 40.2%.

For the compound `CC=CC[C@@H]1[C@@H](O)CC[C@@]2(C)[C@H]1CC[C@@H]1[C@@H]2CC[C@]2(C)[C@@H]([C@H](C)CCCC(C)C)CC[C@@H]12` [(12), (3β,4α,5α)-4-(2-butenyl)cholestan-3-ol], in the test with Syrian Golden hamsters, the inhibition in vivo at 100 mg/kg/day worked out at 27.4% and the “Serum Cholesterol Mean” value is given as 245 mg/dL.

Turning to `C=CC[C@H]1C2CC[C@H]3[C@@H]4CC[C@H]([C@@](C)(O)CCCC(C)C)[C@@]4(C)CC[C@@H]3[C@@]2(C)CC[C@H]1O` (some centres unmarked) [(13), (3a,4a)-4-(2-propenyl)cholestane-3,20-diol], in the test on Syrian Golden hamsters, the inhibition in vivo at 100 mg/kg/day amounted to 25.1% and the “Serum Cholesterol Mean” value was determined as 253 mg/dL.

As to `C=CC[C@@H]1[C@H](O)CC[C@@]2(C)[C@H]1CC[C@@H]1[C@@H]2CC[C@]2(C)C(OCCCCCCCC)CC[C@@H]12` (some centres unmarked) [Example 65, (3a,4a,5a)-17-(octyloxy)-4-(2-propenyl)androstan-3-ol], the MED in test [1] (setting [2]) is 11.3 and 22.5.

As to `C=CC[C@H]1C2CC[C@@H]3[C@H](CC[C@]4(C)C(OCCCc5ccccc5)CC[C@@H]34)[C@@]2(C)CC[C@H]1O` (stereo partly drawn) [Example 67, (3α,4α)-17-(3-phenylpropoxy)-4-(2-propenyl)androstan-3-ol], the MA% was 116% and 118% and 74% in test [1] (setting [3]); 111% and 76% in test [1] (setting [4]). For the same compound, the MED in test [1] (setting [5]) was 11.1 and 22.2.

In the case of `C=CC[C@H]1C2CC[C@@H]3[C@H](CC[C@]4(C)C(OCCCC(C)(C)C)CC[C@@H]34)[C@@]2(C)CC[C@H]1O` (stereo partly drawn) [Example 69, (3α,4α)-17-[(4,4-dimethylpentyl)oxy]-4-(2-propenyl)-androstan-3-ol], the Emax stood at 48% in test [1] (setting [3]) and 39% in test [1] (setting [4]). The MA% in test [1] (setting [4]) is 47%. Further, in test [1] (setting [2]), the MED came out at 46.5. Also, the RED is 20.5 in test [1] (setting [3]); 16.4 and 8.2 in test [1] (setting [6]).

As for `C=CC[C@@H]1C(=O)/C(=C/O)C[C@]2(C)[C@H]3CC[C@]4(C)[C@@H]([C@H](C)CCCC(C)C)CC[C@H]4[C@@H]3CC[C@@H]12` [Example 73, 4a-2-(hydroxymethylene)-4-(2-propenyl)cholestan-3-one], in test [1] (setting [3]), the Emax was 27% and the RED is recorded as 0.97. In addition, the MED in test [1] (setting [2]) amounted to 11.0.

On to `CC(C)CCC[C@@H](C)[C@H]1CC[C@H]2[C@@H]3CC[C@H]4C[C@H](O)[C@H](Cc5ccc(F)cc5)C[C@]4(C)[C@H]3CC[C@]12C` [Example 79, (2a, 3a, 5a)-2-[(4-fluorophenyl)methyl]cholestan-3-ol], for which the Emax in test [1] (setting [4]) amounted to 29%. In addition, the MED in test [1] (setting [5]) is 40.3. The RED in test [1] (setting [6]) is recorded as 5.4.

For `CC(C)CCC[C@@H](C)[C@H]1CC[C@H]2[C@@H]3CC[C@H]4[C@H](CC=C(F)F)[C@H](O)CC[C@]4(C)[C@H]3CC[C@]12C` [Example 85, (3a, 4a, 5a, 20β)-4-(3,3-difluoro-2-propenyl) cholestan-3-ol], the Emax in test [1] (setting [4]) was 138%. The MED in test [1] (setting [5]) is 2.7. Further, the RED in test [1] (setting [6]) turned out to be 0.36.

As for `C=C(C)C[C@@H]1[C@H](O)CC[C@@]2(C)[C@H]1CC[C@@H]1[C@@H]2CC[C@]2(C)[C@@H]([C@H](C)CCCC(C)C)CC[C@@H]12` [Example 89, (3a,4a,5a)-4-(2-methyl-2-propenyl)cholestan-3-ol], the Emax in test [1] (setting [4]) worked out at 102%. The MED in test [1] (setting [5]) was 2.8. For the same compound, the RED in test [1] (setting [6]) is on record as 0.25.

In the case of `C=C(Cl)C[C@@H]1[C@H](O)CC[C@@]2(C)[C@H]1CC[C@@H]1[C@@H]2CC[C@]2(C)[C@@H]([C@H](C)CCCC(C)C)CC[C@@H]12` [Example 91, (3a,4a,5a)-4-(2-chloro-2-propenyl)cholestan-3-ol], the Emax in test [1] (setting [4]) is 96%. In addition, the MED in test [1] (setting [5]) is recorded as 2.7. The RED in test [1] (setting [6]) was 0.24.

Take `C=C(Br)C[C@@H]1[C@H](O)CC[C@@]2(C)[C@H]1CC[C@@H]1[C@@H]2CC[C@]2(C)[C@@H]([C@H](C)CCCC(C)C)CC[C@@H]12` [Example 93, (3a,4a,5a)-4-(2-bromo-2-propenyl)cholestan-3-ol]: the Emax in test [1] (setting [4]) amounted to 131%. For the same compound, the MED in test [1] (setting [5]) is recorded as 4.9. For the same compound, the RED in test [1] (setting [6]) is reported as 0.43.

Regarding `C=CC[C@@H]1[C@H](O)CC[C@@]2(C)[C@H]1CC[C@@H]1[C@@H]2CC[C@]2(C)[C@@H]([C@H](C)CC[C@@H](CC)C(C)C)CC[C@@H]12` [Example 96, (3a, 4a, 5a)-4-(2-propenyl)-stigmastan-3-ol], in test [1] (setting [4]), the Emax amounted to 93%. Moreover, in test [1] (setting [5]), the MED is 8.3. Besides, in test [1] (setting [6]), the RED came to 0.73.

Take `C=CC[C@@H]1[C@H](O)CC[C@@]2(C)[C@H]1CC[C@@H]1[C@@H]2CC[C@]2(C)[C@@H]([C@H](C)/C=C/[C@@H](CC)C(C)C)CC[C@@H]12` [Example 98, (3a, 4a, 5a, 22E)-4-(2-propenyl)-stigmast-22-en-3-ol]: the Emax in test [1] (setting [4]) came out at 66%. Moreover, in test [1] (setting [5]), the MED is 22. Further, the RED in test [1] (setting [6]) amounted to 2.0.

In the case of “[4a(E),5α]-4-(2-butenyl)-25-hydroxycholestan-3a-ol [Example 6]”, in test [1] (setting [3]), the MA% is 72% and 67%; the RED is 0.96 and 1.90. Further, the MED in test [1] (setting [2]) was determined as 21.7.
